Test results as given in US8367873B2, “Phenyl-substituted bicyclooctane-1,3-dione derivatives” (Bayer Cropscience AG, priority 2008, dated 2013).

Assays:
Type in all cases: in vivo
Lolium multiflorum [1] = experiment: Herbicidal pre-emergence action; conditions: pre-emergence method, 80 g/ha, greenhouse, visual assessment vs untreated controls
Procedure, shortened: (§1)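 Test compounds, as wettable powder suspensions with 0.2% wetting agent at a water rate of 600 l/ha, were applied in different amounts to the covering soil over freshly sown seeds in sandy loam. Emergence damage was rated visually in percent against untreated plants after three weeks under greenhouse conditions.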

Echinocloa crus-galli [2] = experiment: Herbicidal pre-emergence action; conditions: pre-emergence method, 80 g/ha, greenhouse, visual assessment vs untreated controls
Procedure, shortened: as §1

Alopecurus myosuroides [3] = experiment: Herbicidal pre-emergence action; conditions: pre-emergence method, 80 g/ha, greenhouse, visual assessment vs untreated controls
Procedure, shortened: as §1

Setaria viridis [4] = experiment: Herbicidal pre-emergence action; conditions: pre-emergence method, 80 g/ha, greenhouse, visual assessment vs untreated controls
Procedure, shortened: as §1

[5] = system: monocotylidonous and dicotylidonous weed and crop plants; experiment: Herbicidal pre-emergence action (other test plants); conditions: pre-emergence method, 80 g/ha, greenhouse, visual assessment vs untreated controls
Procedure, shortened: as §1

Lolium multiflorum [6] = experiment: Herbicidal post-emergence action; conditions: post-emergence method, 80 g/ha
Procedure, shortened: (§2)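 Greenhouse plants in sandy loam sprayed at the one-leaf stage, 2-3 weeks after sowing, with WP-formulated compound at varied rates in 600 l/ha water plus 0.2% wetting agent. Damage scored visually after about three weeks as percent effect versus untreated controls (100% = dead).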

Echinocloa crus-galli [7] = experiment: Herbicidal post-emergence action; conditions: post-emergence method, 80 g/ha
Procedure, shortened: as §2

Alopecurus myosuroides [8] = experiment: Herbicidal post-emergence action; conditions: post-emergence method, 80 g/ha
Procedure, shortened: as §2

Setaria viridis [9] = experiment: Herbicidal post-emergence action; conditions: post-emergence method, 80 g/ha
Procedure, shortened: as §2

[10] = system: monocotylidonous and dicotylidonous weed and crop plants; experiment: Herbicidal post-emergence action (other test plants); conditions: post-emergence method, 80 g/ha
Procedure, shortened: as §2

## C=C1CC2C(=O)C(c3c(C)cc(C)cc3CC)=C(OC(=O)C(C)C)C2C1 (centres unmarked) [I-b-72]
Lolium multiflorum [1]
  herbicidal effect LOLMU: 100%
Echinocloa crus-galli [2]
  herbicidal effect ECHCG: 100%
Alopecurus myosuroides [3]
  herbicidal effect ALOMY: 80%
Setaria viridis [4]
  herbicidal effect SETVI: 100%
[5]
  herbicidal effect AVEFA: 60%
Lolium multiflorum [6]
  herbicidal effect against LOLMU (Lolium multiflorum): 0%
Echinocloa crus-galli [7]
  herbicidal effect against ECHCG (Echinochloa crus-galli): 100%
Alopecurus myosuroides [8]
  herbicidal effect against ALOMY (Alopecurus myosuroides): 0%
Setaria viridis [9]
  herbicidal effect against SETVI (Setaria viridis): 90%
[10]
  herbicidal effect against AVEFA (Avena fatua): 0%

## CCc1cc(C)cc(CC)c1C1=C(OC(=O)OC(C)C)C2CC3(CC2C1=O)OCCCO3 (centres unmarked) [I-c-34]
Lolium multiflorum [1]
  herbicidal effect LOLMU: 100%
Echinocloa crus-galli [2]
  herbicidal effect ECHCG: 100%
Alopecurus myosuroides [3]
  herbicidal effect ALOMY: 90%
Setaria viridis [4]
  herbicidal effect SETVI: 80%
[5]
  herbicidal effect AVEFA: 60%
Lolium multiflorum [6]
  herbicidal effect against LOLMU (Lolium multiflorum): 100%
Echinocloa crus-galli [7]
  herbicidal effect against ECHCG (Echinochloa crus-galli): 100%
Alopecurus myosuroides [8]
  herbicidal effect against ALOMY (Alopecurus myosuroides): 100%
Setaria viridis [9]
  herbicidal effect against SETVI (Setaria viridis): 90%
[10]
  herbicidal effect against AVEFA (Avena fatua): 100%

## CC(=O)OC1=C(c2c(C)cc(C)cc2C)C(=O)C2CC3(COC(C)(C)O3)CC12 (mixture of isomers) [I-b-49]
Lolium multiflorum [1]
  herbicidal effect LOLMU: 70%
Echinocloa crus-galli [2]
  herbicidal effect ECHCG: 50%
Alopecurus myosuroides [3]
  herbicidal effect ALOMY: 90%
Setaria viridis [4]
  herbicidal effect SETVI: 0%
[5]
  herbicidal effect AVEFA: 70%
Lolium multiflorum [6]
  herbicidal effect against LOLMU (Lolium multiflorum): 100%
Echinocloa crus-galli [7]
  herbicidal effect against ECHCG (Echinochloa crus-galli): 100%
Alopecurus myosuroides [8]
  herbicidal effect against ALOMY (Alopecurus myosuroides): 90%
Setaria viridis [9]
  herbicidal effect against SETVI (Setaria viridis): 60%
[10]
  herbicidal effect against AVEFA (Avena fatua): 80%

## CCc1cc(C)cc(CC)c1C1=C(OC(=O)OC)[C@H]2C[C@]3(COC(C)(C)O3)C[C@H]2C1=O (relative stereo) [I-c-4]
Lolium multiflorum [1]
  herbicidal effect LOLMU: 90%
Echinocloa crus-galli [2]
  herbicidal effect ECHCG: 60%
Alopecurus myosuroides [3]
  herbicidal effect ALOMY: 90%
Setaria viridis [4]
  herbicidal effect SETVI: 50%
[5]
  herbicidal effect AVEFA: 80%
Lolium multiflorum [6]
  herbicidal effect against LOLMU (Lolium multiflorum): 100%
Echinocloa crus-galli [7]
  herbicidal effect against ECHCG (Echinochloa crus-galli): 100%
Alopecurus myosuroides [8]
  herbicidal effect against ALOMY (Alopecurus myosuroides): 90%
Setaria viridis [9]
  herbicidal effect against SETVI (Setaria viridis): 0%
[10]
  herbicidal effect against AVEFA (Avena fatua): 90%

## CCOC(=O)OC1=C(c2c(C)cc(C)cc2OC)C(=O)C2CC3(CC12)OCC=CCO3 (racemic) [I-c-65]
Lolium multiflorum [1]
  herbicidal effect LOLMU: 100%
Echinocloa crus-galli [2]
  herbicidal effect ECHCG: 80%
Alopecurus myosuroides [3]
  herbicidal effect ALOMY: 100%
Setaria viridis [4]
  herbicidal effect SETVI: 90%
[5]
  herbicidal effect AVEFA: 60%
Lolium multiflorum [6]
  herbicidal effect against LOLMU (Lolium multiflorum): 100%
Echinocloa crus-galli [7]
  herbicidal effect against ECHCG (Echinochloa crus-galli): 100%
Alopecurus myosuroides [8]
  herbicidal effect against ALOMY (Alopecurus myosuroides): 100%
Setaria viridis [9]
  herbicidal effect against SETVI (Setaria viridis): 100%
[10]
  herbicidal effect against AVEFA (Avena fatua): 100%

## CCc1cc(C)cc(CC)c1C1=C([O-])C2CC3(CC2C1=O)OCCCCO3.[Na+] (centres unmarked) [I-f-17]
Lolium multiflorum [1]
  herbicidal effect LOLMU: 100%
Echinocloa crus-galli [2]
  herbicidal effect ECHCG: 90%
Alopecurus myosuroides [3]
  herbicidal effect ALOMY: 80%
Setaria viridis [4]
  herbicidal effect SETVI: 90%
[5]
  herbicidal effect AVEFA: 60%
Lolium multiflorum [6]
  herbicidal effect against LOLMU (Lolium multiflorum): 100%
Echinocloa crus-galli [7]
  herbicidal effect against ECHCG (Echinochloa crus-galli): 100%
Alopecurus myosuroides [8]
  herbicidal effect against ALOMY (Alopecurus myosuroides): 100%
Setaria viridis [9]
  herbicidal effect against SETVI (Setaria viridis): 100%
[10]
  herbicidal effect against AVEFA (Avena fatua): 100%

## CCc1cc(C)cc(CC)c1C1=C(OC(=O)OC)C2CC3(CC2C1=O)OCC(C)(C)CO3 (centres unmarked) [I-c-23]
Lolium multiflorum [1]
  herbicidal effect LOLMU: 100%
Echinocloa crus-galli [2]
  herbicidal effect ECHCG: 100%
Alopecurus myosuroides [3]
  herbicidal effect ALOMY: 100%
Setaria viridis [4]
  herbicidal effect SETVI: 100%
[5]
  herbicidal effect AVEFA: 70%
Lolium multiflorum [6]
  herbicidal effect against LOLMU (Lolium multiflorum): 100%
Echinocloa crus-galli [7]
  herbicidal effect against ECHCG (Echinochloa crus-galli): 100%
Alopecurus myosuroides [8]
  herbicidal effect against ALOMY (Alopecurus myosuroides): 100%
Setaria viridis [9]
  herbicidal effect against SETVI (Setaria viridis): 100%
[10]
  herbicidal effect against AVEFA (Avena fatua): 100%

## CCc1cc(C)cc(C)c1C1=C(OC(=O)C(C)(C)C)C2CC3(CC2C1=O)OCC=CCO3 (centres unmarked) [I-b-75]
Lolium multiflorum [1]
  herbicidal effect LOLMU: 100%
Echinocloa crus-galli [2]
  herbicidal effect ECHCG: 100%
Alopecurus myosuroides [3]
  herbicidal effect ALOMY: 60%
Setaria viridis [4]
  herbicidal effect SETVI: 70%
[5]
  herbicidal effect AVEFA: 60%
Lolium multiflorum [6]
  herbicidal effect against LOLMU (Lolium multiflorum): 100%
Echinocloa crus-galli [7]
  herbicidal effect against ECHCG (Echinochloa crus-galli): 100%
Alopecurus myosuroides [8]
  herbicidal effect against ALOMY (Alopecurus myosuroides): 100%
Setaria viridis [9]
  herbicidal effect against SETVI (Setaria viridis): 100%
[10]
  herbicidal effect against AVEFA (Avena fatua): 90%

## CCOC(=O)OC1=C(c2c(CC)cc(C)cc2CC)C(=O)C2CC3(CC12)OCC(OCC)CO3 (centres unmarked) [I-c-26]
Lolium multiflorum [1]
  herbicidal effect LOLMU: 100%
Echinocloa crus-galli [2]
  herbicidal effect ECHCG: 100%
Alopecurus myosuroides [3]
  herbicidal effect ALOMY: 100%
Setaria viridis [4]
  herbicidal effect SETVI: 100%
[5]
  herbicidal effect AVEFA: 80%
Lolium multiflorum [6]
  herbicidal effect against LOLMU (Lolium multiflorum): 100%
Echinocloa crus-galli [7]
  herbicidal effect against ECHCG (Echinochloa crus-galli): 100%
Alopecurus myosuroides [8]
  herbicidal effect against ALOMY (Alopecurus myosuroides): 100%
Setaria viridis [9]
  herbicidal effect against SETVI (Setaria viridis): 100%
[10]
  herbicidal effect against AVEFA (Avena fatua): 100%

## CCc1cc(C)cc(C)c1C1=C(OC(=O)C(C)(C)C)C2CC3(CC2C1=O)OCCCO3 (centres unmarked) [I-b-74]
Lolium multiflorum [1]
  herbicidal effect LOLMU: 100%
Echinocloa crus-galli [2]
  herbicidal effect ECHCG: 100%
Alopecurus myosuroides [3]
  herbicidal effect ALOMY: 60%
Setaria viridis [4]
  herbicidal effect SETVI: 70%
[5]
  herbicidal effect AVEFA: 60%
Lolium multiflorum [6]
  herbicidal effect against LOLMU (Lolium multiflorum): 100%
Echinocloa crus-galli [7]
  herbicidal effect against ECHCG (Echinochloa crus-galli): 100%
Alopecurus myosuroides [8]
  herbicidal effect against ALOMY (Alopecurus myosuroides): 80%
Setaria viridis [9]
  herbicidal effect against SETVI (Setaria viridis): 80%
[10]
  herbicidal effect against AVEFA (Avena fatua): 80%

## CCc1cc(C)cc(CC)c1C1=C(OC(=O)C(C)(C)C)C2CC3(CC2C1=O)OCCCO3 (centres unmarked) [I-b-22]
Lolium multiflorum [1]
  herbicidal effect LOLMU: 100%
Echinocloa crus-galli [2]
  herbicidal effect ECHCG: 100%
Alopecurus myosuroides [3]
  herbicidal effect ALOMY: 100%
Setaria viridis [4]
  herbicidal effect SETVI: 80%
[5]
  herbicidal effect AVEFA: 70%
Lolium multiflorum [6]
  herbicidal effect against LOLMU (Lolium multiflorum): 100%
Echinocloa crus-galli [7]
  herbicidal effect against ECHCG (Echinochloa crus-galli): 100%
Alopecurus myosuroides [8]
  herbicidal effect against ALOMY (Alopecurus myosuroides): 100%
Setaria viridis [9]
  herbicidal effect against SETVI (Setaria viridis): 100%
[10]
  herbicidal effect against AVEFA (Avena fatua): 100%
